What was measured:
[1] = test system: Insulin specific NOD T cell clone PD12-4.29; assay: Proliferation of insulin-specific NOD T cell clone PD12-4.29; format: cell-based, mouse (NOD); settings: 50 μg/ml peptide, 72 h, 3H-thymidine; no antigen 789 cpm
Description: (§1) Insulin specific NOD T cell lines were established by culturing lymphocytes isolated from islet-infiltrating populations by in vitro stimulation with either porcine insulin at 25 μg/ml and irradiated NOD islet cell in the presence of irradiated NOD spleen cells as antigen presenting cells and cytokines. To obtain the infiltrating lymphocytes the following procedures were performed (see Wegmann et al., Eur. J. Immunol. 24:1853, 1994): the pancreas from the NOD mouse was digested with collagenase and individual islets were isolated manually. The infiltrating lymphocytes were then obtained by mild trypsin digestion of the islets. The insulin specific T cell lines or clones were propagated by serial stimulation in the presence of NOD spleen cells, porcine insulin and lymphokines. Clones were obtained by limiting dilution of the B chain (9-23) specific T cell lines in the presence of the antigen presenting cells and porcine insulin at 25 μg/ml. Wells with a growing population of cells following limiting dilution were expanded in appropriate medium, and after one cycle of growth were tested for reactivity to the B chain (9-23) peptide of insulin by evaluating the proliferative response.
(§2) Insulin B chain (9-23) (SEQ ID NO:2) specific mouse (NOD) T cell clones were isolated from infiltrated islets as described in Example 2. Peptide analogues with single alanine substitutions were prepared as described in Example 1. The effect of each analogue on T cell proliferation was then evaluated using an assay performed in 96-well flat bottom microtiter plates (see Daniel et al., Eur. J. Immunol. 25:1056, 1995). Briefly 25,000 T cell clones along with 1 million irradiated NOD spleen cells were cultured in the presence of 50 μg/ml of insulin B chain 9-23 peptide or any of the alanine substituted peptides listed below in triplicate sets. The plates were incubated for a total of 72 hours in 7% carbon dioxide atmosphere with a pulse of 1 μCi/well of tritiated thymidine for the last 6-8 hours of culture. Cells were harvested on a glass fiber filter and the associated radioactivity was counted in a liquid scintillation counter. Results are expressed as mean counts per minute of triplicate wells.

[2] = test system: Insulin specific NOD T cell clone PD12-4.4; assay: Proliferation of insulin-specific NOD T cell clone PD12-4.4; format: cell-based, mouse (NOD); settings: 50 μg/ml peptide, 72 h, 3H-thymidine; no antigen 350 cpm
Description: as §1, §2

[3] = test system: Insulin specific NOD T cell clone PD12-4.34; assay: Proliferation of insulin-specific NOD T cell clone PD12-4.34; format: cell-based, mouse (NOD); settings: 50 μg/ml peptide, 72 h, 3H-thymidine; no antigen 231 cpm
Description: as §1, §2

[4] = test system: Insulin specific NOD T cell clone PD12-2.40; assay: Proliferation of insulin-specific NOD T cell clone PD12-2.40; format: cell-based, mouse (NOD); settings: 50 μg/ml peptide, 72 h, 3H-thymidine; no antigen 682 cpm
Description: as §1, §2
(§3) NOD T cell clones were incubated in the presence of 50 μM of either the native B chain (9-23) peptide or NBI-6024. The data in Table 3 represent the mean of triplicate sample±standard error of the mean. Within Table 3, S.I. (Stimulation Index)=proliferation (cpm) in the presence of the peptide/proliferation (cpm) in medium alone.

[5] = test system: Insulin specific NOD T cell clone PD6-4.3; assay: Proliferation of insulin-specific NOD T cell clone PD6-4.3; format: cell-based, mouse (NOD); settings: 50 μg/ml peptide, 72 h, 3H-thymidine; no antigen 163 cpm
Description: as §1, §2

[6] = test system: Insulin B chain (9-23) specific mouse (NOD) T cell clones; assay: Proliferation of insulin-specific NOD T cell clones (summary over clones); format: cell-based; settings: five separate T cell clones; 50 μg/ml peptide
Description: as §1, §2, §3

[7] = test system: B chain (9-23) specific mouse T cell clones; assay: Antagonism of T cell proliferation assay (FIG. 2); format: cell-based, mouse (NOD); settings: varying amounts of analogue
Description: FIG. 2 is a graph showing the proliferative response (measured in cpm) of a NOD mouse T cell clone to a native insulin B chain (9-23) peptide in the presence of varying amounts of representative peptide analogues, in which different residues are substituted with alanine, as indicated.
Peptide analogues of B chain (9-23) containing alanine substitutions at residue 12, 13, 15 or 16 or the doubly substituted peptide at positions 16 and 19 (A^16,19; NBI-6024) were prepared as described in Example 1. T cell antagonism was detected by evaluating the ability of the peptide analogues to inhibit T cell proliferation induced by native B chain (9-23) (SEQ ID NO:2). In this assay, antigen presenting cells were first irradiated and then incubated with the competing peptide analogue and the native B chain (9-23) peptide. T cells were then added to the culture. Various concentrations of candidate peptide analogues were included in cultures which were incubated for a total of 4 days. Following this incubation period, each culture was pulsed with 1 μCi of [^3H]-thymidine for an additional 12-18 hours. Cultures were then harvested on fiberglass filters and counted as above. Mean CPM and standard error of the mean were calculated from data determined in triplicate cultures.

[8] = test system: NOD mice (spontaneous diabetes); assay: Reduction of incidence of diabetes in NOD mice; format: in vivo, NOD mouse; settings: NOD mice, 400 μg s.c. weekly, 13 treatments; neurotensin as control; FIG. 10

Substance	Response (cpm) of T cell clone PD12-4.29 [1] [cpm]	Response (cpm) of T cell clone PD12-4.4 [2] [cpm]	Response (cpm) of T cell clone PD12-4.34 [3] [cpm]	Response (cpm) of T cell clone PD12-2.40 [4] [cpm]	Response (cpm) of T cell clone PD6-4.3 [5] [cpm]	Proliferation relative to the 9-23 native peptide of insulin B chain [6]	Inhibition of T cell proliferation induced by native B chain (9-23) [7]	Incidence of diabetes (percent of mice diabetic) [8]
Position 10: insulin B chain (9-23) analogue, native H at position 10 substituted with A	15484	823	356	1409	12507	–	–	–
Position 11: insulin B chain (9-23) analogue, native L at position 11 substituted with A	18416	474	190	2594	14148	–	–	–
Position 12: insulin B chain (9-23) analogue, native V at position 12 substituted with A (SHLAEALYLVCGERG)	15041	1129	194	671	8292	either a lack of proliferation or significantly reduced proliferation	capable of attenuating the response	–
Position 13: insulin B chain (9-23) analogue, native E at position 13 substituted with A (SHLVAALYLVCGERG)	891	373	179	519	142	either a lack of proliferation or significantly reduced proliferation	capable of attenuating the response	more pronounced
Position 15: insulin B chain (9-23) analogue, native L at position 15 substituted with A (SHLVEAAYLVCGERG)	809	675	191	1422	161	either a lack of proliferation or significantly reduced proliferation	–	–
Position 16: insulin B chain (9-23) analogue, native Y at position 16 substituted with A (SHLVEALALVCGERG)	636	779	202	539	98	either a lack of proliferation or significantly reduced proliferation	capable of attenuating the response	–
Position 17: insulin B chain (9-23) analogue, native L at position 17 substituted with A	1460	332	4360	19321	553	either a lack of proliferation or significantly reduced proliferation	–	–
Position 18: insulin B chain (9-23) analogue, native V at position 18 substituted with A	1193	225	721	44785	234	either a lack of proliferation or significantly reduced proliferation	–	–
Position 19: insulin B chain (9-23) analogue, native C at position 19 substituted with A	6054	4295	689	34212	7678	–	–	–
Position 20: insulin B chain (9-23) analogue, native G at position 20 substituted with A	13736	1323	466	38685	2440	–	–	–
Position 21: insulin B chain (9-23) analogue, native E at position 21 substituted with A	4904	7900	773	39087	91	–	–	–
Position 22: insulin B chain (9-23) analogue, native R at position 22 substituted with A	12635	1313	1555	51721	6555	–	–	–
Position 23: insulin B chain (9-23) analogue, native G at position 23 substituted with A	18422	3228	791	75441	14304	–	–	–

Reference: patent US20040082503A1, “Methods for treatment of diabetes using peptide analogues of insulin” (Neurocrine Biosciences, Inc., priority 1998, published 2004)
